Like-named read-outs stand apart in the source and are kept apart here.

One series relates to Rhynchosporium commune. Description: Leaf blotch of barley, whole-plant fungicidal activity (RHYNSE). Format: in vivo. Conditions: 24 h, 1DP (1 day protectant), read-out: % Disease Control Rating RHYNSE. Put shortly:
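Barley cv. 'Harrington' at full first-leaf emergence (7-10 seedlings per pot) was sprayed to run-off with compound in acetone plus nine volumes of water containing 110 ppm Triton X-100, air-dried, then inoculated with spore suspension. Plants spent two days in a dark dew room at 100% RH, then moved to greenhouse for disease development.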

The subject of a further series is Zymoseptoria tritici. Briefly: Septoria leaf blotch of wheat, whole-plant fungicidal activity (SEPTTR). As to conditions: read-out: % Disease Control Rating SEPTTR. Format: in vivo, Zymoseptoria tritici on wheat plants (variety 'Yuma'). Put shortly: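 Compounds in acetone, diluted with nine volumes of water containing 110 ppm Triton X-100, were sprayed to run-off on 'Yuma' wheat seedlings at full first-leaf emergence. Spore inoculation was 3 days before (3DC, curative) or 1 day after (1DP, protectant) treatment, then 3 days at 100% RH and greenhouse. First-leaf disease severity (0–100%) was scored relative to untreated plants as percent control.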

Another series deals with Cochliobolus sativus. Briefly: Spot blotch of barley, whole-plant fungicidal activity (COCHSA). Format: in vivo. As to conditions: 1DP (1 day protectant), 200 ppm. As for the experimental part: Technical grades of materials were dissolved in acetone, which were then mixed with nine volumes of water (H2O) containing 110 ppm Triton X-100. The fungicide solutions were applied onto wheat seedlings using an automated booth sprayer to run-off. All sprayed plants were allowed to air dry prior to further handling. All fungicides were evaluated using the aforementioned method for their activity vs. all target diseases, unless stated otherwise. Example E. Evaluation of Fungicidal Activity: Spot Blotch of Barley (Cochliobolus sativus Bayer Code COCHSA) Barley seedlings (variety ‘Harrington’) were propagated in soil-less potting mix, with each pot having 8 to 12 plants, and used for testing when the first leaf was fully emerged. Test plants were inoculated with a spore suspension of Cochliobolus sativus 24 h after fungicide treatments. After inoculation the plants were kept in […] for two days to permit spores to germinate and infect the leaf. The plants were then transferred to a greenhouse for disease to develop. Fungicide formulation, application and disease assessment followed the procedures as described in Example A.

For the next series, the system named is Phakopsora pachyrhizi. Description: Asian soybean rust, whole-plant fungicidal activity (PHAKPA). Format: in vivo. As to conditions: read-out: % Disease Control Rating PHAKPA. An outline of the steps: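 Ten-day-old 'Williams 82' soybean seedlings sprayed to run-off with compound in acetone/water (1:9, 0.011% Tween-20), air-dried, then inoculated; 24 h dark dew room at 100% RH, then growth room. Disease severity scored 0–100% on sprayed leaves; percent control relative to untreated plants.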

For another series, the system named is Puccinia triticina. Briefly: Wheat brown rust, whole-plant fungicidal activity (PUCCRT). Conditions: 24 h, 1DP (1 day protectant), read-out: % Disease Control Rating PUCCRT. Format: in vivo, Puccinia triticina on wheat plants (variety 'Yuma'). An outline of the steps:
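Wheat 'Yuma' seedlings at first-leaf stage sprayed to run-off with compound from acetone stock diluted in nine volumes water containing 110 ppm Triton X-100, then inoculated with Puccinia triticina spores. Held overnight in dark dew room at 100% RH, then greenhouse for disease development.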

Regarding `CCN(C)/C=N/c1cc(C)c(C(=O)CC2CCCC2)cc1C` [Compound 4], the pest or weed control at 200 ppm with Rhynchosporium commune was over 85%; in the series on Zymoseptoria tritici (24 h, 1DP (1 day protectant)), over 85%; in the series on Zymoseptoria tritici (72 h, 3DC (3 day curative)) it was 50 to 85%; with Phakopsora pachyrhizi (24 h, 1DP (1 day protectant)), over 85%; in the series with Phakopsora pachyrhizi (72 h, 3DC (3 day curative)), over 85%; in the series with Puccinia triticina it was over 85%. In the series with Cochliobolus sativus, the “% Disease Control Rating COCHSA” value was “A (>85%)”.

On to `CCN(C)/C=N/c1cc(C)c(C(=O)Cc2ccc(C)cc2)cc1C` [Compound 9], for which the melting point was 90 to 93 °C. In the series with Rhynchosporium commune, the pest or weed control at 200 ppm is over 85%. Besides, the pest or weed control at 200 ppm in the series on Zymoseptoria tritici (24 h, 1DP (1 day protectant)) is under 20%. Further, in the series with Zymoseptoria tritici (72 h, 3DC (3 day curative)), the pest or weed control at 200 ppm was under 20%. Besides, the “% Disease Control Rating COCHSA” value with Cochliobolus sativus is recorded as “A (>85%)”. Besides, in the series on Phakopsora pachyrhizi (24 h, 1DP (1 day protectant)), the pest or weed control at 200 ppm was over 85%. Besides, in the series with Phakopsora pachyrhizi (72 h, 3DC (3 day curative)), the pest or weed control at 200 ppm was over 85%. The pest or weed control at 200 ppm in the series on Puccinia triticina is over 85%.

For `CCN(C)/C=N/c1ccc(C(=O)CCCC(F)(F)F)c(C)c1C` [Compound 14], the melting point is 49 to 52 °C. Further, the pest or weed control at 200 ppm in the series with Rhynchosporium commune is under 20%. For the same compound, the pest or weed control at 200 ppm in the series with Zymoseptoria tritici (24 h, 1DP (1 day protectant)) is under 20%. In addition, the pest or weed control at 200 ppm with Zymoseptoria tritici (72 h, 3DC (3 day curative)) was under 20%. Further, the pest or weed control at 200 ppm with Phakopsora pachyrhizi (24 h, 1DP (1 day protectant)) was over 85%. The pest or weed control at 200 ppm in the series with Phakopsora pachyrhizi (72 h, 3DC (3 day curative)) was over 85%. Moreover, the pest or weed control at 200 ppm in the series with Puccinia triticina was over 85%.

For the compound `CCN(C)/C=N/c1ccc(C(=O)CC2CCCCC2)c(C)c1C` [Compound 15], the melting point lay within 68 to 72 °C. The pest or weed control at 200 ppm with Rhynchosporium commune lay in the range of 50 to 85%. In addition, the pest or weed control at 200 ppm in the series on Zymoseptoria tritici (24 h, 1DP (1 day protectant)) is under 20%. Also, in the series on Zymoseptoria tritici (72 h, 3DC (3 day curative)), the pest or weed control at 200 ppm was under 20%. The pest or weed control at 200 ppm in the series with Phakopsora pachyrhizi (24 h, 1DP (1 day protectant)) was over 85%. In addition, in the series on Phakopsora pachyrhizi (72 h, 3DC (3 day curative)), the pest or weed control at 200 ppm was over 85%. In addition, in the series with Puccinia triticina, the pest or weed control at 200 ppm was under 20%.

In general, melting point refers to the temperature, or range, at which the solid turns liquid.

Values taken from patent US20240000075A1, “FUNGICIDAL ARYL AMIDINES” (CORTEVA AGRISCIENCE LLC, priority 2020, published 2024).
